# In patent US20230265082A1, “SUBSTITUTED 1,2,4-OXADIAZOLES AS SMALL MOLECULE INHIBITORS OF UBIQUITIN-SPECIFIC PROTEASE 28” (Dana-Farber Cancer Institute, Inc., priority 2020, published 2023):
# pIC50: −log10 of the molar value.
# Molecular target: T1, USP28 (Homo sapiens, UniProt Q96RU2)
# T1 sequence (Q96RU2 1-1077): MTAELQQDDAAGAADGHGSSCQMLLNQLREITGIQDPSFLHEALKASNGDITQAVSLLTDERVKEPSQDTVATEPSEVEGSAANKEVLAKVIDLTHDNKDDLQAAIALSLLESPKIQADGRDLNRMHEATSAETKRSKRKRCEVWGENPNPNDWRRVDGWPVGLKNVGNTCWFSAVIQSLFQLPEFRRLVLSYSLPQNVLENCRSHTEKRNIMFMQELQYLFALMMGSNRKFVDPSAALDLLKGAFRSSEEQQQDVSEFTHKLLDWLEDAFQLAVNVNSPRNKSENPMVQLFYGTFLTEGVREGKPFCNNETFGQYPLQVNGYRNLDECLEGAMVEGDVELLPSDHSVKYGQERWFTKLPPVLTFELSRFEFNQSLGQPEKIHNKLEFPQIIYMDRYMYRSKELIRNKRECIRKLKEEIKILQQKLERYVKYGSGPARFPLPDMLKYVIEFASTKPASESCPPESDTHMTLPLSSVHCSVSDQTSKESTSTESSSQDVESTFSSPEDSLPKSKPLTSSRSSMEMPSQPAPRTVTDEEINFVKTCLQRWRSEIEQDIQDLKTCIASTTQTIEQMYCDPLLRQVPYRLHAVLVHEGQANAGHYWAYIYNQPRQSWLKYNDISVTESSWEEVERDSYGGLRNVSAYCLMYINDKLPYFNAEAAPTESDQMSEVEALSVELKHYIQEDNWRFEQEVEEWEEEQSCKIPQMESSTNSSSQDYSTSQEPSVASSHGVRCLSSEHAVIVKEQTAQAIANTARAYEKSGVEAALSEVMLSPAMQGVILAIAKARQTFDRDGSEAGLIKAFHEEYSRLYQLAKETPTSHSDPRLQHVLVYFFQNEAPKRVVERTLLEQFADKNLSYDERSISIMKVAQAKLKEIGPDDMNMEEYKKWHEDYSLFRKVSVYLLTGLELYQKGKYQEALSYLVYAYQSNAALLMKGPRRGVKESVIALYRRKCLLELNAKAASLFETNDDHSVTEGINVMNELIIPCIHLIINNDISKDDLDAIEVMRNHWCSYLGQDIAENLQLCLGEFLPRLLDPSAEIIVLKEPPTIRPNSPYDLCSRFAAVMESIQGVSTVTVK
# Experiment: Ubiquitin-Rhodamine110 assay
# Assay type: biochemical
# Conditions: USP28 at 1 nM, 30 minutes pre-incubation at room temperature, Ubiquitin-Rho110 125 nM
# Method: USP28 (at 1 nM) was pre-incubated with different concentrations of inhibitors or DMSO as a control in 50 mM Tris pH 8, 50 mM NaCl, 0.002% Tween-20, 5 mM DTT. Compounds and protein were incubated for 30 minutes at room temperature prior to the addition of Ubiquitin-Rho110 (Boston Biochem) substrate for a final concentration of 125 nM. The initial rate of the reaction was measured by collecting fluorescence data at one-minute interval over 30-minute period using a Clariostar® fluorescence plate reader at excitation and emission wavelength of 485 nm and 535 nm, respectively. The calculated initial rate values were plotted against inhibitor concentrations to determine IC50s. All the experimental data were plotted using GraphPad Prism®.
row,pIC50,SMILES
1,< 4.00,O=c1ccc(-c2nc(-c3ccc(OC(F)(F)F)cc3)no2)cn1Cc1ccnc(Cl)c1 [Compound 11]
2,< 4.00,COC(=O)c1ccc(Cc2noc(Cc3ccc(Cl)c(Cl)c3)n2)cc1 [Compound 14]
3,< 4.00,CCC(c1ccccc1)c1nc(-c2ccc(=O)[nH]c2)no1 (centres unmarked) [Compound 21]
4,> 6.00,Nc1ccc(-c2noc(Cc3ccc(Cl)c(Cl)c3)n2)cn1 [Compound 19]
5,4.00 to 5.00,O=C(O)c1cccc(-c2noc(Cc3ccc(Cl)c(Cl)c3)n2)c1 [Compound 18]
6,5.00 to 6.00,O=c1ccc(-c2noc(Cc3ccc(Cl)cc3)n2)c[nH]1 [Compound 4]
7,> 6.00,Clc1ccc(-c2noc(Cc3ccc4ccccc4c3)n2)cn1 [Compound 22]
8,< 4.00,CN1CCN(c2cc(Cn3cc(-c4nc(-c5ccc(OC(F)(F)F)cc5)no4)ccc3=O)ccn2)CC1 [Compound 12]
9,< 4.00,c1ccc(-c2nc(-c3cccnc3)no2)nc1 [Compound 2]
10,4.00 to 5.00,O=C(O)c1ccc(Cc2noc(Cc3ccc(Cl)c(Cl)c3)n2)cc1 [Compound 15]
11,< 4.00,CN(C)c1ccc(-c2noc(Cc3ccc(Cl)c(Cl)c3)n2)cn1 [Compound 13]
12,5.00 to 6.00,c1ccc2cc(Cc3nc(-c4ccncc4)no3)ccc2c1 [Compound 1]
13,5.00 to 6.00,O=c1ccc(-c2noc(Cc3ccc(Cl)c(Cl)c3)n2)cn1Cc1ccccc1 [Compound 10]
14,5.00 to 6.00,Clc1cccc(Cc2nc(-c3ccc(Cl)nc3)no2)c1 [Compound 29]
15,4.00 to 5.00,Nc1ccc(Cc2nc(-c3ccc(Cl)nc3)no2)cc1 [Compound 30]
16,5.00 to 6.00,Clc1ccc(Cc2nc(-c3ccc(Cl)nc3)no2)cc1 [Compound 3]
17,> 6.00,Clc1ccc(-c2noc(Cc3ccccc3)n2)cn1 [Compound 6]
18,5.00 to 6.00,O=c1ccc(-c2noc(Cc3cc(F)cc(F)c3)n2)c[nH]1 [Compound 16]
19,5.00 to 6.00,Clc1ccc(-c2noc(Cc3cccc4ccccc34)n2)cn1 [Compound 23]
20,> 6.00,Clc1ccc(-c2noc(Cc3ccc(Cl)c(Cl)c3)n2)cn1 [Compound 5]
21,5.00 to 6.00,O=C(Nc1ccc(-c2noc(Cc3ccc(Cl)c(Cl)c3)n2)cn1)[C@H]1CCNC1 [Compound 32]
22,< 4.00,CCC(c1ccccc1)c1nc(-c2ccc(Cl)nc2)no1 (centres unmarked) [Compound 20]
23,5.00 to 6.00,O=c1ccc(-c2noc(Cc3ccccc3)n2)c[nH]1 [Compound 7]
24,> 6.00,O=c1ccc(-c2noc(Cc3ccc(Cl)c(Cl)c3)n2)c[nH]1 [Compound 8]
25,5.00 to 6.00,O=c1ccc(-c2nc(Cc3ccc(Cl)c(Cl)c3)no2)c[nH]1 [Compound 9]
26,> 6.00,O=c1ccc(-c2noc(Cc3cccc(Cl)c3)n2)c[nH]1 [Compound 28]
27,5.00 to 6.00,O=[N+]([O-])c1cc(Cc2nc(-c3ccc(Cl)nc3)no2)ccc1Cl [Compound 31]

row,SMILES,pIC50
1,N[C@@H](Cc1ccccc1)c1nc(-c2ccc(=O)[nH]c2)no1 [Compound 17],< 4.00

# Molecular target: T1, USP28
# Experiment: Competitive activity-based protein profiling (target engagement, Ub-VME probe, Western blot)
# Assay type: binding
# Conditions: K562 cells lysed, treated with compound for 1 h followed by Ub-VME; Western blot (FIG. 3)
# Method: K562 cells were lysed and treated with indicated concentrations of compound 8 for 1 h followed by incubation with Ub-VME. Ub-VME covalently modifies USP28, resulting in higher MW band observed by Western blot.
# Cells were pelleted, washed with PBS buffer, lysed on ice (20 mM Tris pH 8, 150 mM NaCl, 1% NP-40, 10% glycerol, 1 mM TCEP, phosphatase inhibitor cocktails (Sigma P5726 and Calbiochem 524624), and protease inhibitors (pepstatin, leupeptin, PMSF, and aprotinin), and clarified by centrifugation. Protein content was quantified by BCA and diluted to 2 mg/mL in lysis buffer. Compounds were added at desired concentrations and incubated at room temperature for 30 minutes. Samples were then supplemented with 2 uM HA-Ub-VS and incubated at room temperature with shaking for 15 minutes. Reactions were quenched with 4×LDS sample buffer (Thermo Fisher B0007) supplemented with 10% BME, vortexed vigorously, and heated to 95° C. for 5 minutes. Samples were resolved by SDS-PAGE and analyzed by Western blot with the indicated antibodies.
row,SMILES,labeling of USP28 by covalent Ub-VME probe (target engagement)
1,O=c1ccc(-c2noc(Cc3ccc(Cl)c(Cl)c3)n2)c[nH]1 [Compound 8],prevents labeling of USP28 by the covalent Ub-VME probe
